Here are results for eight compounds from patent publication US5677419A, “Cyclic vasoactive peptide analogs” (Hoffmann-La Roche Inc., priority 1994, dated 1997).

One experiment has as its system guinea pigs. In words: In vivo bronchodilator activity by tracheal instillation against histamine challenge. Also on record: species or system guinea pig. The following applies: anesthetized male guinea pigs, inhibition of histamine (i.v.)-induced rise in tracheal pressure. An outline of the steps: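 Urethane-anaesthetised male Hartley guinea pigs (400-600 g) received compound in water by intratracheal instillation, then were paralysed, ventilated and challenged with histamine […] i.v. Tracheal pressure change gave % inhibition (≥3 animals/group); ED50 from log dose-response; duration as time until inhibition fell to 40%.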

In experiment [1] the test system is guinea pig tracheal smooth muscle. As to the kind of experiment: Tracheal relaxant activity of VIP analogs on isolated guinea pig tracheal rings. The class given is cell-based. The following applies: cumulative concentration response, relaxation as % of maximum response to VIP (10^-6 M=100%), three tissues pooled, linear regression. The essentials: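 Male guinea pig tracheal rings under 1.5 g resting tension in Krebs at 37° C, 95% O2/5% CO2, isometric tension. Cumulative concentration-response curves; relaxation as % of response to 10^-6 M VIP added at end; three tissues pooled, EC50 by linear regression.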

Where a SMILES comes first, the peptide text is derived from it. Bridges are numbered along the chain shown (N, C = ends). [ ]: non-standard residue; d: D form. Tyr(3-F) = N[C@@H](Cc1ccc(O)c(F)c1)C(=O)O; Tyr(3-OMe) = COc1cc(C[C@H](N)C(=O)O)ccc1O; Nle = CCCC[C@H](N)C(=O)O

Consider `CCCC[C@H](NC(=O)[C@H](CCC(N)=O)NC(=O)[C@H](CCCCN)NC(=O)[C@H](CCCNC(=N)N)NC(=O)[C@H](CC(C)C)NC(=O)[C@H](CCCCN)NC(=O)[C@@H](NC(=O)[C@H](Cc1ccc(O)cc1)NC(=O)[C@H](CC(N)=O)NC(=O)[C@H](CCC(=O)O)NC(=O)[C@@H](NC(=O)[C@H](Cc1ccccc1)NC(=O)[C@@H](NC(=O)[C@H](C)NC(=O)[C@H](CC(=O)O)NC(=O)[C@H](CO)NC(=O)[C@H](Cc1c[nH]cn1)NC(C)=O)C(C)C)[C@@H](C)O)[C@@H](C)O)C(=O)N[C@@H](C)C(=O)N[C@@H](C)C(=O)N[C@@H](CCCCN)C(=O)N[C@H]1CCCCNC(=O)C[C@@H](C(=O)N[C@@H](CC(C)C)C(=O)N[C@@H](CCCCN)C(=O)N[C@@H](CCCCN)C(N)=O)NC(=O)[C@H](CC(N)=O)NC(=O)[C@H](CC(C)C)NC(=O)[C@H](Cc2ccc(O)c(OC)c2)NC1=O` [SEQ ID NO:57, Ac-[Glu^8,Lys^12,Nle^17,Ala^19,m-OCH3 -Tyr^22,Asp^25,Leu^26,Lys^27,28]-VIP cyclo (Lys^21 →Asp^25)] (Ac-HSDAVFTENYTKLRKQ[Nle]AAKK[Tyr(3-OMe)]LNDLKK-NH2; lactam 21-25), for which, in the experiment on guinea pigs, the “Bronchodilator activity of VIP analogs in guinea pigs, ED50” value (shortened to “Bronchodilator activity of VIP analogs”) is given as 0.019 μg. Moreover, it took 0.29 nM to reach a half-maximal effect in experiment [1] (EC50).
For the compound `CCCC[C@H](NC(=O)[C@H](CCC(N)=O)NC(=O)[C@H](CCCCN)NC(=O)[C@H](CCCNC(=N)N)NC(=O)[C@H](CC(C)C)NC(=O)[C@H](CCCCN)NC(=O)[C@@H](NC(=O)[C@H](Cc1ccc(O)cc1)NC(=O)[C@H](CC(N)=O)NC(=O)[C@H](CCC(=O)O)NC(=O)[C@@H](NC(=O)[C@H](Cc1ccccc1)NC(=O)[C@@H](NC(=O)[C@H](C)NC(=O)[C@H](CC(=O)O)NC(=O)[C@H](CO)NC(=O)[C@H](Cc1c[nH]cn1)NC(C)=O)C(C)C)[C@@H](C)O)[C@@H](C)O)C(=O)N[C@@H](C)C(=O)N[C@@H](C)C(=O)N[C@@H](CCCCN)C(=O)N[C@H]1CCCCNC(=O)C[C@@H](C(=O)N[C@@H](CC(C)C)C(=O)N[C@@H](CCCCN)C(=O)N[C@@H](CCCCN)C(N)=O)NC(=O)[C@H](CC(N)=O)NC(=O)[C@H](CC(C)C)NC(=O)[C@H](Cc2ccc(O)c(F)c2)NC1=O` [SEQ ID NO:58, Ac-[Glu^8,Lys^12,Nle^17,Ala^19,m-F-L-Tyr^22,Asp^25,Leu^26,Lys^27,28]-VIP cyclo (Lys^21 →Asp^25)] (Ac-HSDAVFTENYTKLRKQ[Nle]AAKK[Tyr(3-F)]LNDLKK-NH2; lactam 21-25), in the experiment with guinea pigs, the “Bronchodilator activity of VIP analogs” value is 0.03 μg. In addition, the concentration giving a half-maximal response (EC50) (usually the concentration giving half of the maximal effect) in experiment [1] worked out at 0.31 nM.
The corresponding values for `CCCC[C@H](NC(=O)[C@H](CCC(N)=O)NC(=O)[C@H](CCCCN)NC(=O)[C@H](CCCNC(=N)N)NC(=O)[C@H](CC(C)C)NC(=O)[C@H](CCCCN)NC(=O)[C@@H](NC(=O)[C@H](Cc1ccc(O)cc1)NC(=O)[C@H](CC(N)=O)NC(=O)[C@H](C)NC(=O)[C@@H](NC(=O)[C@H](Cc1ccccc1)NC(=O)[C@@H](NC(=O)[C@H](C)NC(=O)[C@H](CC(=O)O)NC(=O)[C@H](CO)NC(=O)[C@H](Cc1c[nH]cn1)NC(C)=O)C(C)C)[C@@H](C)O)[C@@H](C)O)C(=O)N[C@@H](C)C(=O)N[C@@H](C)C(=O)N[C@@H](CCCCN)C(=O)N[C@H]1CCCCNC(=O)C[C@@H](C(=O)N[C@@H](CC(C)C)C(=O)N[C@@H](CCCCN)C(=O)N[C@@H](CCCCN)C(N)=O)NC(=O)[C@H](C)NC(=O)[C@H](CC(C)C)NC(=O)[C@H](Cc2ccc(O)cc2)NC1=O` [SEQ ID NO:59, Ac-[Ala^8,Lys^12,Nle^17,Ala^19,Ala^24,Asp^25,Leu^26,Lys^27,28]-VIP cyclo (Lys^21 →Asp^25)] (Ac-HSDAVFTANYTKLRKQ[Nle]AAKKYLADLKK-NH2; lactam 21-25) are 0.17 μg and 1.1 nM.
On to `CC(=O)N[C@@H](Cc1c[nH]cn1)C(=O)N[C@@H](CO)C(=O)N[C@@H](CC(=O)O)C(=O)N[C@@H](C)C(=O)N[C@H](C(=O)N[C@@H](Cc1ccccc1)C(=O)N[C@H](C(=O)N[C@@H](CCC(=O)O)C(=O)N[C@@H](CC(N)=O)C(=O)N[C@@H](Cc1ccc(O)cc1)C(=O)N[C@H](C(=O)N[C@@H](CCCCN)C(=O)N[C@@H](CC(C)C)C(=O)N[C@@H](CCCNC(=N)N)C(=O)N[C@@H](CCCCN)C(=O)N[C@@H](C)C(=O)N[C@@H](C)C(=O)N[C@@H](C)C(=O)N[C@@H](C)C(=O)N[C@@H](CCCCN)C(=O)N[C@H]1CCCCNC(=O)C[C@@H](C(=O)N[C@@H](CC(C)C)C(=O)N[C@@H](CCCCN)C(=O)N[C@@H](CCCCN)C(N)=O)NC(=O)[C@H](CC(N)=O)NC(=O)[C@H](CC(C)C)NC(=O)[C@H](Cc2ccc(O)cc2)NC1=O)[C@@H](C)O)[C@@H](C)O)C(C)C` [SEQ ID NO:60, Ac-[Glu^8,Lys^12,Ala^16,17,19,Asp^25,Leu^26,Lys^27,28]-VIP cyclo (Lys^21 →Asp^25)] (Ac-HSDAVFTENYTKLRKAAAAKKYLNDLKK-NH2; lactam 21-25), for which the “Bronchodilator activity of VIP analogs” value with guinea pigs is reported as 0.17 μg. This compound also gave an EC50 in experiment [1] of 0.26 nM.
On to `CCCC[C@H](NC(=O)[C@H](C)NC(=O)[C@H](CCCCN)NC(=O)[C@H](CCCNC(=N)N)NC(=O)[C@H](CC(C)C)NC(=O)[C@H](CCCCN)NC(=O)[C@@H](NC(=O)[C@H](Cc1ccc(O)cc1)NC(=O)[C@H](CC(N)=O)NC(=O)[C@H](C)NC(=O)[C@@H](NC(=O)[C@H](Cc1ccccc1)NC(=O)[C@@H](NC(=O)[C@H](C)NC(=O)[C@H](CC(=O)O)NC(=O)[C@H](CO)NC(=O)[C@H](Cc1c[nH]cn1)NC(C)=O)C(C)C)[C@@H](C)O)[C@@H](C)O)C(=O)N[C@@H](C)C(=O)N[C@@H](C)C(=O)N[C@@H](CCCCN)C(=O)N[C@H]1CCCCNC(=O)C[C@@H](C(=O)N[C@@H](CC(C)C)C(=O)N[C@@H](CCCCN)C(=O)N[C@@H](CCCCN)C(N)=O)NC(=O)[C@H](C)NC(=O)[C@H](CC(C)C)NC(=O)[C@H](Cc2ccc(O)cc2)NC1=O` [SEQ ID NO:61, Ac-[Ala^8,Lys^12,Ala^16,Nle^17,Ala^19,Ala^24,Asp^25,Leu^26,Lys^27,28]-VIP cyclo (Lys^21 →Asp^25)] (Ac-HSDAVFTANYTKLRKA[Nle]AAKKYLADLKK-NH2; lactam 21-25), for which the “Bronchodilator activity of VIP analogs” value in the experiment on guinea pigs stood at 0.045 μg. The compound further had an EC50 in experiment [1] of 2.4 nM.
Regarding `CC(=O)N[C@@H](Cc1c[nH]cn1)C(=O)N[C@@H](CO)C(=O)N[C@@H](CC(=O)O)C(=O)N[C@@H](C)C(=O)N[C@H](C(=O)N[C@@H](Cc1ccccc1)C(=O)N[C@H](C(=O)N[C@@H](C)C(=O)N[C@@H](CC(N)=O)C(=O)N[C@@H](Cc1ccc(O)cc1)C(=O)N[C@H](C(=O)N[C@@H](CCCCN)C(=O)N[C@@H](CC(C)C)C(=O)N[C@@H](CCCNC(=N)N)C(=O)N[C@@H](CCCCN)C(=O)N[C@@H](C)C(=O)N[C@@H](C)C(=O)N[C@@H](C)C(=O)N[C@@H](C)C(=O)N[C@@H](CCCCN)C(=O)N[C@H]1CCCCNC(=O)C[C@@H](C(=O)N[C@@H](CC(C)C)C(=O)N[C@@H](CCCCN)C(=O)N[C@@H](CCCCN)C(N)=O)NC(=O)[C@H](C)NC(=O)[C@H](CC(C)C)NC(=O)[C@H](Cc2ccc(O)cc2)NC1=O)[C@@H](C)O)[C@@H](C)O)C(C)C` [SEQ ID NO:62, Ac-[Ala^8,Lys^12,Ala^16,17,19,Ala^24,Asp^25,Leu^26,Lys^27,28]-VIP cyclo (Lys^21 →Asp^25)] (Ac-HSDAVFTANYTKLRKAAAAKKYLADLKK-NH2; lactam 21-25), the “Bronchodilator activity of VIP analogs” value with guinea pigs is recorded as 0.24 μg. In addition, in experiment [1], the EC50 turned out to be 0.1 nM.
Take `CC(=O)N[C@@H](Cc1c[nH]cn1)C(=O)N[C@@H](CO)C(=O)N[C@@H](CC(=O)O)C(=O)N[C@@H](C)C(=O)N[C@H](C(=O)N[C@@H](Cc1ccccc1)C(=O)N[C@H](C(=O)N[C@@H](CCC(=O)O)C(=O)N[C@@H](CC(N)=O)C(=O)N[C@@H](Cc1ccc(O)cc1)C(=O)N[C@H](C(=O)N[C@@H](CCCCN)C(=O)N[C@@H](CC(C)C)C(=O)N[C@@H](CCCNC(=N)N)C(=O)N[C@@H](CCCCN)C(=O)N[C@@H](C)C(=O)N[C@@H](C)C(=O)N[C@@H](C)C(=O)N[C@@H](C)C(=O)N[C@@H](CCCCN)C(=O)N[C@H]1CCCCNC(=O)C[C@@H](C(=O)N[C@@H](CC(C)C)C(=O)N[C@@H](CCCCN)C(=O)N[C@@H](CCCCN)C(N)=O)NC(=O)[C@H](C)NC(=O)[C@H](CC(C)C)NC(=O)[C@H](Cc2ccc(O)cc2)NC1=O)[C@@H](C)O)[C@@H](C)O)C(C)C` [SEQ ID NO:64, Ac-[Glu^8,Lys^12,Ala^16,17,19,Ala^24,Asp^25,Leu^26,Lys^27,28]-VIP cyclo (Lys^21 →Asp^25)] (Ac-HSDAVFTENYTKLRKAAAAKKYLADLKK-NH2; lactam 21-25): in the experiment on guinea pigs, the “Bronchodilator activity of VIP analogs” value stood at 0.13 μg. This compound displayed an EC50 in experiment [1] of 0.22 nM.
Regarding `CCCC[C@H](NC(=O)[C@H](CCC(N)=O)NC(=O)[C@H](CCCCN)NC(=O)[C@H](CCCNC(=N)N)NC(=O)[C@H](CC(C)C)NC(=O)[C@H](CCCCN)NC(=O)[C@@H](NC(=O)[C@H](Cc1ccc(O)cc1)NC(=O)[C@H](CC(N)=O)NC(=O)[C@H](CCC(=O)O)NC(=O)[C@@H](NC(=O)[C@H](Cc1ccccc1)NC(=O)[C@@H](NC(=O)[C@H](C)NC(=O)[C@H](CC(=O)O)NC(=O)[C@H](CO)NC(=O)[C@H](Cc1c[nH]cn1)NC(C)=O)C(C)C)[C@@H](C)O)[C@@H](C)O)C(=O)N[C@@H](C)C(=O)N[C@@H](C)C(=O)N[C@@H](CCCCN)C(=O)N[C@H]1CCCCNC(=O)C[C@@H](C(=O)N[C@H](C(=O)N[C@@H](CC(C)C)C(=O)N[C@H](C(=O)NCC(=O)NCC(=O)N[C@H](C(N)=O)[C@@H](C)O)[C@@H](C)O)C(C)C)NC(=O)[C@H](CC(N)=O)NC(=O)[C@H](CC(C)C)NC(=O)[C@H](Cc2ccc(O)cc2)NC1=O` [SEQ ID NO:65, Ac-[Glu^8,Lys^12,Nle^17,Ala^19,Asp^25,Val^26,Thr^28,Gly^29,30,Thr^31]-VIP cyclo (Lys^21 →Asp^25)] (Ac-HSDAVFTENYTKLRKQ[Nle]AAKKYLNDVLTGGT-NH2; lactam 21-25), in the experiment on guinea pigs, the “Bronchodilator activity of VIP analogs” value is on record as 0.84 μg. For the same compound, the EC50 in experiment [1] amounted to 0.88 nM.
